Assay results published in patent publication US8513286B2, “Iminipyridine derivatives and their uses as microbiocides” (Syngenta Crop Protection LLC, priority 2007, dated 2013).

What was measured:
Assay type in all cases: in vivo
[1] = test system: Erysiphe graminis f.sp. hordei; test: Erysiphe graminis f.sp. hordei, powdery mildew of barley, curative test on barley leaf segments; settings: Blumeria graminis, foliar, 168 h; application rate 200 ppm; barley leaf segments sprayed 24 h after inoculation; assessed 7 days after inoculation; 0=no control, 100%=complete control; read-out: curative fungicidal activity, percent efficacy relative to untreated infected control
Method: Erysiphe graminis f.sp. hordei: Powdery Mildew of Barley, Curative Test Erysiphe graminis f.sp. hordei (Barley powdery mildew): Barley leaf segments are placed on agar in multiwell plates (24-well format). The leaf disks are inoculated with spores of the fungus (120 conidia/mm2). After 24 h the leaf disks are sprayed with the formulated (2% Dimethylsulfoxid, 0,025% Tween 20) test solutions. After appropriate incubation, the curative fungicidal activity of a compound is assessed 7 days after inoculation as disease damage on the leaf disks and calculated as percent efficacy relative to untreated infected control (0=no control of Erysiphe graminis f.sp. hordei, 100%=complete control). In this test, compounds listed in Table P above show good activity.

[2] = test system: Pyrenophora teres; test: Pyrenophora teres, net blotch of barley, preventative test on barley leaf segments; settings: foliar, 96 h, application rate 200 ppm, assessed 4 days after inoculation, 0=no control, 100%=complete control, read-out: preventive fungicidal activity, percent efficacy relative to untreated infected control
Method: Pyrenophora teres: Net Blotch of Barley, Preventative Test Method Description Pyrenophora teres (Net blotch): Barley leaf segments are placed on agar in multiwell plates (24-well format) and sprayed with the formulated (2% Dimethylsulfoxid, 0,025% Tween 20) test solutions. After drying, the leaf disks are inoculated with a spore suspension of the fungus (25'000 conidia/ml). After appropriate incubation, the preventive fungicidal activity of a compound is assessed 4 days after inoculation as disease damage on the leaf disks and calculated as percent efficacy relative to untreated infected control (0=no control of Pyrenophora teres, 100%=complete control). In this test, compounds listed in Table P above show good activity.

[3] = test system: Erysiphe graminis f.sp. tritici; test: Erysiphe graminis f.sp. tritici, wheat powdery mildew, preventative test on wheat leaf segments; settings: Blumeria graminis, foliar, 168 h, application rate 200 ppm, assessed 7 days after inoculation, 0=no control, 100%=complete control, read-out: preventive fungicidal activity, percent efficacy relative to untreated infected control
Method: Erysiphe graminis f.sp. tritici: Wheat Powdery Mildew, Preventative Test Erysiphe graminis f.sp. tritici (Wheat powdery mildew): Wheat leaf segments are placed on agar in multiwell plates (24-well format) and sprayed with the formulated (2% Dimethylsulfoxid, 0,025% Tween 20) test solutions. After drying, the leaf disks are inoculated with spores of the fungus (50 conidia/mm2). After appropriate incubation, the preventive fungicidal activity of a compound is assessed 7 days after inoculation as disease damage on the leaf disks and calculated as percent efficacy relative to untreated infected control. (0=no control of Erysiphe graminis f.sp. tritici, 100%=complete control). In this test, compounds listed in Table P above show good activity.

[4] = test system: Puccinia recondita; test: Puccinia recondita, brown rust of wheat, preventative test on wheat leaf segments; settings: foliar, 192 h, application rate 200 ppm, assessed 8 days after inoculation, 0=no control, 100%=complete control, read-out: preventive fungicidal activity, percent efficacy relative to untreated infected control
Method: Puccinia recondite: Brown Rust of Wheat, Preventative Test Puccinia recondita (Brown rust): Wheat leaf segments are placed on agar in multiwell plates (24-well format) and sprayed with the formulated (2% Dimethylsulfoxid, 0,025% Tween 20) test solutions. After drying, the leaf disks are inoculated with a spore suspension of the fungus (45'000 conidia/ml). After appropriate incubation, the preventive fungicidal activity of a compound is assessed 8 days after inoculation as disease damage on the leaf disks and calculated as percent efficacy relative to untreated infected control (0=no control of Puccinia recondita, 100%=complete control). In this test, compounds listed in Table P above show good activity.

[5] = test system: Plasmopara viticola; test: Plasmopara viticola, downy mildew of grapevine, preventative test on grape vine leaf disks; settings: application rate 200 ppm, assessed 6 days after inoculation, 0=no control, 100%=complete control
Method: (§1) Plasmopara viticola: Downy Mildew of Grapevine, Preventative Test Plasmopara viticola (downy mildew of grapevine): Grape vine leaf disks are placed on agar in multiwell plates (24-well format) and sprayed with the formulated (2% Dimethylsulfoxid, 0,025% Tween 20) test solutions. After drying, the leaf disks are inoculated with a spore suspension of the fungus (80′000 conidia/ml). After appropriate incubation, the preventive fungicidal activity of a compound is assessed 6 days after inoculation as disease damage on the leaf disks and calculated as percent efficacy relative to untreated infected control. (0=no control of Plasmopara viticola, 100%=complete control). In this test, compounds listed in Table P above show good activity.

[6] = test system: Puccinia recondita; test: Puccinia recondita, brown rust of wheat, curative test on wheat leaf segments; settings: foliar, 192 h, application rate 200 ppm, wheat leaf segments treated one day after inoculation, assessed 8 days after inoculation, 0=no control, 100%=complete control, read-out: curative fungicidal activity, percent efficacy relative to untreated infected control
[7] = test system: Botrytis cinerea; test: Botrytis cinerea, gray mould, preventative test on bean leaf disks; settings: application rate 200 ppm, assessed 3 days after inoculation, 0=no control, 100%=complete control
Method: as §1, with “Botrytis cinerea: Gray Mould,” for “Plasmopara viticola: Downy Mildew of Grapevine,”, “Botrytis cinerea (Gray mould): Bean” for “Plasmopara viticola (downy mildew of grapevine): Grape vine”, “(60′000” for “(80′000”, “3” for “6”, “Botrytis cinerea,” for “Plasmopara viticola,”

| Structure (SMILES) | pest or weed control at 200 ppm [3] [%] | pest or weed control at 200 ppm [4] [%] | pest or weed control at 200 ppm [6] [%] | also measured |
| --- | --- | --- | --- | --- |
| CCN(C)/C=N/c1ccc(Oc2ccc(Cl)cc2Cl)nc1 [P.01] |  |  |  | pest or weed control at 200 ppm [1]: ≥ 50% |
| CN(C)/C=N/c1ccc(Oc2ccc(Cl)cc2Cl)nc1 [P.03] |  |  |  | pest or weed control at 200 ppm [1]: ≥ 50% |
| C#CC(C)N(C)/C=N/c1ccc(Oc2ccc(Cl)cc2Cl)nc1 (stereo not drawn) [P.04] |  |  |  | pest or weed control at 200 ppm [1]: ≥ 50% |
| CC(C)c1cc(Oc2ccc(Cl)c(Cl)c2)nc(C(C)C)c1/N=C/N(C)C [P.05] |  |  |  | pest or weed control at 200 ppm [2]: ≥ 50% |
| Cc1cc(Oc2ccc(Cl)c(C(F)(F)F)c2)ncc1/N=C/N(C)C [P.06] |  |  |  | pest or weed control at 200 ppm [1]: ≥ 50% |
| CCN(C)/C=N/c1ccc(Oc2ccc(Cl)c(C(F)(F)F)c2)nc1C [P.07] | ≥ 50 | ≥ 50 |  | pest or weed control at 200 ppm [1]: ≥ 50% |
| CCN/C=N/c1cnc(Oc2ccc(Cl)c(C(F)(F)F)c2)c(C)c1 [P.08] |  |  |  | pest or weed control at 200 ppm [2]: ≥ 50%; pest or weed control at 200 ppm [1]: ≥ 50% |
| Cc1cc(/N=C/N(C)C)cnc1Oc1ccc(Cl)c(C(F)(F)F)c1 [P.09] | ≥ 50 |  |  | pest or weed control at 200 ppm [2]: ≥ 50% |
| C#CC(C)N(C)/C=N/c1cnc(Oc2ccc(Cl)c(C(F)(F)F)c2)c(C)c1 (stereo not drawn) [P.10] |  |  |  | preventive fungicidal activity, percent efficacy relative to untreated infected control [5]: at least 50% |
| CCN(C)/C=N/c1cnc(Oc2ccc(Cl)c(C(F)(F)F)c2)cc1C [P.11] |  | ≥ 50 |  | pest or weed control at 200 ppm [1]: ≥ 50% |
| Cc1cc(/N=C/N(C)C)cnc1Oc1cccc(C(C)(C)C)c1 [P.14] |  |  |  | pest or weed control at 200 ppm [1]: ≥ 50% |
| CN(C)/C=N/c1ccc(Oc2ncc(C(F)(F)F)cc2Cl)nc1 [P.15] |  |  |  | pest or weed control at 200 ppm [1]: ≥ 50% |
| Cc1cc(/N=C/N(C)c2ccccn2)cnc1Oc1ccc(Cl)c(C(F)(F)F)c1 [P.16] |  |  |  | pest or weed control at 200 ppm [1]: ≥ 50% |
| CCN(C)/C=N/c1cnc(Oc2cccc(C(C)(C)C)c2)c(C)c1 [P.17] |  |  |  | pest or weed control at 200 ppm [1]: ≥ 50% |
| CCN(C)/C=N/c1cnc(Oc2ccc(Cl)c(C(F)(F)F)c2)c(C)c1 [P.19] |  |  |  | pest or weed control at 200 ppm [1]: ≥ 50% |
| COc1ccc(Oc2ccc(/N=C/N(C)C)cn2)cc1 [P.21] | ≥ 50 |  |  |  |
| CN(C)/C=N/c1ccc(Oc2ccc(Cl)cc2)nc1 [P.22] | ≥ 50 |  |  |  |
| CCN(C)/C=N/c1cc(Br)c(OCCCC(C)C)nc1C [P.26] | ≥ 50 | ≥ 50 | ≥ 50 |  |
| CCN(C)/C=N/c1ccc(OCCCC(C)C)nc1C [P.28] | ≥ 50 | ≥ 50 | ≥ 50 |  |
| CCN(C)/C=N/c1cc(Br)c(Oc2ccc(Cl)c(C(F)(F)F)c2)nc1C [P.29] | ≥ 50 | ≥ 50 | ≥ 50 | preventive fungicidal activity, percent efficacy relative to untreated infected control [7]: at least 50% |
| CCN(C)/C=N/c1cc(-c2ccc(F)cc2)c(Oc2ccc(Cl)c(C(F)(F)F)c2)nc1C [P.30] | ≥ 50 |  |  |  |
| CCN(C)/C=N/c1cc(C#C[Si](C)(C)C)c(Oc2ccc(Cl)c(C(F)(F)F)c2)nc1C [P.31] |  | ≥ 50 | ≥ 50 |  |

| Structure (SMILES) | pest or weed control at 200 ppm [3] [%] | pest or weed control at 200 ppm [4] [%] | pest or weed control at 200 ppm [6] [%] | also measured |
| --- | --- | --- | --- | --- |
| Cc1nc(OCCCC(C)C)c(Br)cc1NC(=S)N(C)C(C)C [P.35] | ≥ 50 | ≥ 50 | ≥ 50 |  |
| CCN(C)/C=N/c1cnc(Oc2cccc(C(F)(F)F)c2)cc1C [P.36] |  |  | ≥ 50 |  |
| CCN(C)/C=N/c1cc(C#N)c(Oc2cc(F)cc(F)c2)nc1C [P.41] |  |  | ≥ 50 |  |
| CCN(C)/C=N/c1cc(Cl)c(OCCCC(C)C)nc1C [P.46] |  |  |  | pest or weed control at 200 ppm [2]: ≥ 50% |
| CCN(C)/C=N/c1cnc(Oc2cccc(C(F)(F)F)c2)c(Br)c1C [P.51] |  | ≥ 50 |  |  |
| CCN(C)/C=N/c1ccc(OCCCC(C)C)nc1OC [P.58] |  | ≥ 50 | ≥ 50 |  |
| CCN(C)/C=N/c1cc(Cl)c(OCCCC(C)C)nc1OC [P.59] | ≥ 50 | ≥ 50 | ≥ 50 |  |
| CCN(C)/C=N/c1cc(Br)c(OCCCC(C)C)nc1OC [P.61] | ≥ 50 | ≥ 50 | ≥ 50 |  |
| CCN(C)/C=N/c1cc(Br)c(OC2CCc3ccccc3C2)nc1C (stereo not drawn) [P.62] | ≥ 50 | ≥ 50 | ≥ 50 | pest or weed control at 200 ppm [2]: ≥ 50% |
| CCN(C)/C=N/c1cc(OC)c(Oc2ccc(Cl)c(C(F)(F)F)c2)nc1Cl [P.63] | ≥ 50 |  |  |  |
| CCN(C)/C=N/c1cc(Cl)c(OCCCC(C)C)nc1Br [P.64] | ≥ 50 | ≥ 50 | ≥ 50 | pest or weed control at 200 ppm [2]: ≥ 50% |
| CCN(C)/C=N/c1cc(OC)c(Oc2ccc(Cl)c(C(F)(F)F)c2)nc1Br [P.68] | ≥ 50 |  |  |  |
| CCN(C)/C=N/c1cc(Br)c(OCCCC(C)C)nc1Br [P.69] | ≥ 50 |  | ≥ 50 | pest or weed control at 200 ppm [2]: ≥ 50% |
| CCN(C)/C=N/c1cc(OC)c(OCCCC(C)C)nc1Br [P.70] |  | ≥ 50 | ≥ 50 |  |
| CCN(C)/C=N/c1cc(OC)c(OCCCC(C)C)nc1Cl [P.73] | ≥ 50 | ≥ 50 | ≥ 50 | pest or weed control at 200 ppm [2]: ≥ 50% |
| CCN(C)/C=N/c1cc(Br)c(Oc2cccc3ccccc23)nc1C [P.76] | ≥ 50 | ≥ 50 | ≥ 50 |  |
| CCN(C)/C=N/c1cc(Br)c(Oc2ccc3ccccc3c2)nc1C [P.77] | ≥ 50 | ≥ 50 | ≥ 50 |  |
| CCN(C)/C=N/c1cc(Br)c(Oc2ccc3ncc(Br)cc3c2)nc1C [P.78] | ≥ 50 |  |  |  |
| CCN(C)/C=N/c1cc(Br)c(Oc2cc(Cl)c3ncc(Br)cc3c2)nc1C [P.79] |  | ≥ 50 |  |  |
| CCN(C)/C=N/c1cc(Cl)c(OCCCC(C)C)nc1C#N [P.81] |  |  | ≥ 50 |  |
| CCN(C)/C=N/c1cc(Br)c(OC2CCc3cc(OC)ccc3C2)nc1C (stereo not drawn) [P.82] | ≥ 50 | ≥ 50 | ≥ 50 |  |
